Structures are written as SMILES.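 Interpolation was linear, between the two tested concentrations surrounding the appropriate level; five concentrations were tested over 48 hours in 96-well plates. GI50: concentration for 50% inhibition of growth. TGI: total growth inhibition.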

Test systems include CCRF-CEM leukemia; LOX IMVI melanoma; MOLT-4 leukemia; NCI-H23 lung; PC-3 prostate; RPMI-8226 leukemia; SK-OV-3 ovarian; SNB-19 CNS; SR leukemia; SF-539 CNS.
Test in all cases: NCI anticancer screen, dose series, 48 h

`Clc1ccc(CCNCCNC2(c3cc4ccccc4s3)CCCCC2)cc1Cl`: the TGI was 5.39 µM in the test on CCRF-CEM leukemia; 3.36 µM in the test with LOX IMVI melanoma; 4.53 µM in the test on MOLT-4 leukemia; 3.38 µM in the test with NCI-H23 lung; 3.11 µM in the test on PC-3 prostate; 4.62 µM in the test on RPMI-8226 leukemia. Besides, the TGI came out at 2.81 µM in the test on SK-OV-3 ovarian, 3.83 µM with SNB-19 CNS and 4.19 µM in the test with SR leukemia.
As to `O=[N+]([O-])c1cc(-c2ccc([As](=O)(O)O)cc2)ccc1[As](=O)(O)O`, the TGI with CCRF-CEM leukemia, with LOX IMVI melanoma, with MOLT-4 leukemia, with NCI-H23 lung, in the test on PC-3 prostate and in the test on RPMI-8226 leukemia was over 100 µM each time. Further, the TGI in the test on SNB-19 CNS and in the test on SR leukemia was over 100 µM throughout.
As for `Cc1cc2nc3c(C)c4ccccc4c(C)n3c2cc1C`, the TGI in the test on CCRF-CEM leukemia was over 10 µM; in the test with LOX IMVI melanoma it was 3.61 µM; in the test with MOLT-4 leukemia, over 10 µM; with NCI-H23 lung it was over 10 µM; in the test with PC-3 prostate it was over 10 µM; in the test with RPMI-8226 leukemia it was over 10 µM. For the same molecule, the TGI was 4.88 µM in the test with SF-539 CNS, over 10 µM in the test on SK-OV-3 ovarian, over 10 µM in the test on SNB-19 CNS and 9.01 µM in the test on SR leukemia.
For `CCc1c[n+]2c(cc1C1=CN3c4ccccc4[C@]45CCN6C/C(=C/CO)[C@H](C[C@H]64)[C@@H]([C@@H]1O)[C@H]35)-c1[nH]c3ccccc3c1CC2`, the TGI in the test on CCRF-CEM leukemia, with LOX IMVI melanoma, with MOLT-4 leukemia, in the test with NCI-H23 lung, in the test with PC-3 prostate and with RPMI-8226 leukemia was over 50 µM throughout. Also, the TGI with SF-539 CNS, in the test with SK-OV-3 ovarian, in the test on SNB-19 CNS and in the test with SR leukemia was over 50 µM throughout.
`Cc1ccc(S(=O)(=O)N(CC(O)COc2ccccc2)c2ccccc2Cl)cc1` (configuration not stated): the TGI with CCRF-CEM leukemia was found to be 40.4 µM; in the test with LOX IMVI melanoma, 38.8 µM; with MOLT-4 leukemia it was 52.9 µM; in the test with NCI-H23 lung, 31.1 µM; with PC-3 prostate, 30.8 µM; with RPMI-8226 leukemia it was 30.4 µM. The TGI in the test with SF-539 CNS is 33.2 µM; in the test with SK-OV-3 ovarian, 52 µM; in the test with SNB-19 CNS it was 39.5 µM; with SR leukemia it was 35.1 µM.
Consider `CCOC(=O)/C(C(N)=O)=C(/O)c1cnccn1`, for which the TGI in the test with CCRF-CEM leukemia, with LOX IMVI melanoma, with MOLT-4 leukemia, with NCI-H23 lung, in the test with PC-3 prostate and in the test with RPMI-8226 leukemia was over 100 µM each time. The TGI in the test with SF-539 CNS, in the test on SK-OV-3 ovarian, with SNB-19 CNS and in the test with SR leukemia was over 100 µM throughout.
As for `COc1ccc(C2=Nn3c(nc4sc5c(c4c3=O)CCCC5)SC2)cc1`, the TGI in the test with CCRF-CEM leukemia, in the test with LOX IMVI melanoma, in the test with MOLT-4 leukemia, in the test with NCI-H23 lung, in the test with PC-3 prostate and with RPMI-8226 leukemia was over 100 µM in each case. Further, the TGI in the test with SF-539 CNS, in the test on SK-OV-3 ovarian and in the test with SR leukemia was over 100 µM each time.
Take `CCc1cc2c(cc1O)CC[C@@H]1[C@@H]2CC[C@]2(C)[C@@H](O)CC[C@@H]12`: the TGI came out at 15 µM with CCRF-CEM leukemia; 26.6 µM in the test with LOX IMVI melanoma; 20 µM with MOLT-4 leukemia; 20.6 µM with NCI-H23 lung; 37.3 µM in the test on PC-3 prostate; 9.5 µM with SF-539 CNS. Besides, the values for the TGI with SK-OV-3 ovarian, with SNB-19 CNS and with SR leukemia were 39.6 µM, 19 µM and 10.9 µM, respectively. Besides, the GI50 in the test on SF-539 CNS is 3.27 µM.
For `Nc1ccc(Oc2ccc(C34CC5CC(C3)CC(c3ccc(Oc6ccc(N)c(O)c6)cc3)(C5)C4)cc2)cc1O`, the TGI with LOX IMVI melanoma was 3.11 µM; in the test on MOLT-4 leukemia, over 100 µM; with NCI-H23 lung it was 4.1 µM; in the test on PC-3 prostate it was 5.69 µM; in the test on RPMI-8226 leukemia, over 100 µM; in the test on SF-539 CNS, 4.57 µM. Further, the results for the TGI with SK-OV-3 ovarian, in the test with SNB-19 CNS and in the test on SR leukemia were 8.57 µM, 7.5 µM and over 100 µM, respectively.
With `Cc1[nH]c(-c2ccccc2)c(O)c1C(=O)OC1CC(C)CCC1C(C)C` (configuration not stated), the TGI in the test with CCRF-CEM leukemia was determined as 31 µM; in the test with MOLT-4 leukemia it was 28.1 µM; with NCI-H23 lung it was 26.6 µM; in the test with PC-3 prostate, 26.7 µM; in the test on RPMI-8226 leukemia it was 54.9 µM; with SF-539 CNS it was 29.7 µM. Further, the TGI was 29.1 µM with SK-OV-3 ovarian, 31.1 µM with SNB-19 CNS and 34.7 µM in the test on SR leukemia.
On to `CC(=O)O[C@H]1C(=O)[C@@]2(C)C(C(OC(=O)c3ccccc3)[C@]3(O)CC(OC(=O)C(O)C(NC(=O)c4cccc(Cl)c4)c4ccccc4)C(C)=C1C3(C)C)[C@]1(OC(C)=O)CO[C@@H]1C[C@@H]2O` (some centres not stated), for which the TGI in the test with CCRF-CEM leukemia was 5.91 µM; in the test with LOX IMVI melanoma, over 10 µM; with MOLT-4 leukemia, over 10 µM; with NCI-H23 lung, over 10 µM; in the test on PC-3 prostate it was over 10 µM; in the test on RPMI-8226 leukemia, over 10 µM. Besides, the TGI in the test with SF-539 CNS is 2.19 µM; with SK-OV-3 ovarian, over 10 µM; in the test with SNB-19 CNS it was over 10 µM; with SR leukemia, 5.15 µM.
On to `COC(=O)c1cc(NC(=O)Cn2c3ccccc3c3ccccc32)cn1C`, for which the TGI in the test with CCRF-CEM leukemia is over 100 µM; with LOX IMVI melanoma, over 100 µM; in the test on MOLT-4 leukemia, over 100 µM; in the test on NCI-H23 lung it was over 100 µM; in the test with PC-3 prostate it was over 100 µM; in the test on RPMI-8226 leukemia it was 75 µM. The TGI in the test with SF-539 CNS was 63.1 µM; in the test on SK-OV-3 ovarian, 89.2 µM; with SNB-19 CNS, over 100 µM; in the test on SR leukemia it was over 100 µM.
As for `O=C1C(Nc2ccc(S(=O)(=O)Nc3cnc4ccccc4n3)cc2)=CC(=Nc2ccc(S(=O)(=O)Nc3cnc4ccccc4n3)cc2)c2ccccc21`, the TGI with CCRF-CEM leukemia was 57 µM; with LOX IMVI melanoma, 30.7 µM; in the test with MOLT-4 leukemia it was 71.2 µM; in the test on NCI-H23 lung, 36.1 µM; with PC-3 prostate, 52.9 µM; with RPMI-8226 leukemia, over 77.8 µM. The TGI with SF-539 CNS is 35.7 µM; with SK-OV-3 ovarian, 31 µM; with SNB-19 CNS it was 29 µM; in the test with SR leukemia, over 73.9 µM.
Turning to `COc1cc2c(cc1OC)C/C(=N\O)c1cc(OC)c(OC)cc1/C=C\2`, the TGI in the test with CCRF-CEM leukemia was over 100 µM; with LOX IMVI melanoma it was 25.6 µM; with MOLT-4 leukemia it was over 85 µM; in the test with NCI-H23 lung, over 100 µM; with PC-3 prostate, over 100 µM; in the test on RPMI-8226 leukemia it was 66.9 µM. Moreover, the TGI was 18 µM with SF-539 CNS, over 85.3 µM in the test with SK-OV-3 ovarian, over 65.5 µM in the test on SNB-19 CNS and over 50.8 µM in the test with SR leukemia.
Take `N#Cc1ccccc1C#C/C=C\C#Cc1ccccn1`: the TGI in the test with CCRF-CEM leukemia is over 100 µM; in the test with NCI-H23 lung, 25.5 µM; in the test on PC-3 prostate, 40.6 µM; in the test with SF-539 CNS, 45.1 µM; in the test on SK-OV-3 ovarian, 76.7 µM; in the test with SNB-19 CNS, 69.3 µM. In addition, the TGI with SR leukemia was 36.2 µM.
In the case of `O=C(N/N=C/c1ccc(O)cc1)NNCCO`, the TGI in the test on CCRF-CEM leukemia, in the test with MOLT-4 leukemia, in the test with NCI-H23 lung, with PC-3 prostate, in the test on SF-539 CNS and with SK-OV-3 ovarian was over 100 µM each time. Moreover, the TGI in the test on SNB-19 CNS and in the test with SR leukemia was over 100 µM in each case.
Consider `CCCCCCCCC/C=C1/CC(CO)(COC(=O)C2CCCCC2)OC1=O` (configuration not stated), for which the TGI with CCRF-CEM leukemia, in the test on LOX IMVI melanoma, in the test with MOLT-4 leukemia, with NCI-H23 lung, in the test with PC-3 prostate and with SK-OV-3 ovarian was over 100 µM each time. In addition, the TGI with SNB-19 CNS and in the test with SR leukemia was over 100 µM each time.
Regarding `C[C@]12CC[C@@H]3c4cc(C=O)c(OCc5ccccc5)cc4CC[C@H]3[C@@H]1CCC2OCc1ccccc1` (some centres not stated), the TGI with CCRF-CEM leukemia, in the test on LOX IMVI melanoma, in the test with MOLT-4 leukemia, in the test on NCI-H23 lung, with PC-3 prostate and in the test on RPMI-8226 leukemia was over 100 µM throughout. The TGI with SF-539 CNS, in the test with SK-OV-3 ovarian and in the test with SR leukemia was over 100 µM throughout.
Regarding `Nc1nc(Cl)cc(OCC2(CO)CCCCC2)n1`, the TGI with CCRF-CEM leukemia, in the test on LOX IMVI melanoma, in the test with MOLT-4 leukemia, in the test with NCI-H23 lung, with PC-3 prostate and in the test on RPMI-8226 leukemia was over 100 µM in each case. The TGI in the test on SF-539 CNS, in the test on SNB-19 CNS and with SR leukemia was over 100 µM each time.
In the case of `COc1ccc2nc3c(nc2c1)C(C)(C)C=C3c1ccc(Br)cc1`, the TGI in the test on CCRF-CEM leukemia, in the test on LOX IMVI melanoma, in the test on MOLT-4 leukemia, in the test on PC-3 prostate, in the test on RPMI-8226 leukemia and in the test with SF-539 CNS was over 100 µM in each case. The TGI in the test on SNB-19 CNS and in the test with SR leukemia was over 100 µM each time.
On to `O=S1(=O)OCCOS(=O)(=O)C1C1c2ccccc2-c2ccccc21`, for which the TGI was 89.4 µM in the test with CCRF-CEM leukemia; 89 µM with LOX IMVI melanoma; 48.2 µM with MOLT-4 leukemia; over 100 µM in the test with NCI-H23 lung; over 100 µM in the test with PC-3 prostate; over 100 µM in the test with RPMI-8226 leukemia. The TGI with SF-539 CNS, in the test on SK-OV-3 ovarian and in the test on SNB-19 CNS was over 100 µM in each case.

(Values after PubChem BioAssay (NCI).)
